Among the data in article PMC9621233, “4-Cyanamidobenzenesulfonamide derivatives: a novel class of human and bacterial carbonic anhydrase inhibitors” (Journal of Enzyme Inhibition and Medicinal Chemistry, 2022) are Ki values, retold here.

Each structure is given as a SMILES string.

What all share (assay): stopped-flow CO2 hydration assay, phenol red
One experiment deals with T1, hCA I (Homo sapiens, UniProt P00915).
T1 construct: gene CA1; recombinant, obtained in-house; cytosolic alpha-CA
It counts as biochemical. Conditions: read-out: KI (nM)^a / hCA I (α-CA). An excerpt:
stopped-flow CO2 hydration assay, phenol red on hCA I

The next experiment deals with T2, MscCA.
T2 construct: recombinant beta-CA, obtained in-house; earlier published as SauCA
Format: biochemical, Mammaliicoccus sciuri. Conditions: […] TRIS pH […] Na2SO4, […] h preincubation, room temperature; read-out: KI (nM)^a / MscCA (β-CA).

The target in another experiment is T3, StCA2.
T3 construct: recombinant beta-CA, obtained in-house
It counts as biochemical, Salmonella enterica subsp. enterica serovar Typhimurium. Conditions: […] TRIS pH […] Na2SO4, […] h preincubation, room temperature; read-out: KI (nM)^a / StCA2 (β-CA).

A further experiment has as its target T4, hCA VII (Homo sapiens, UniProt P43166).
T4 construct: gene CA7; recombinant, obtained in-house; cytosolic alpha-CA
It counts as biochemical. Conditions: read-out: KI (nM)^a / hCA VII (α-CA). An excerpt:
stopped-flow CO2 hydration assay, phenol red on hCA VII

For the next experiment, the target named is T5, StCA1.
T5 construct: recombinant beta-CA, obtained in-house
It counts as biochemical, Salmonella enterica subsp. enterica serovar Typhimurium. Conditions: […] TRIS pH […] Na2SO4, […] h preincubation, room temperature; read-out: KI (nM)^a / StCA1 (β-CA).

Another experiment deals with T6, hCA XIII (Homo sapiens, UniProt Q8N1Q1).
T6 construct: gene CA13; recombinant, obtained in-house; cytosolic alpha-CA
T6 sequence (Q8N1Q1 whole entry): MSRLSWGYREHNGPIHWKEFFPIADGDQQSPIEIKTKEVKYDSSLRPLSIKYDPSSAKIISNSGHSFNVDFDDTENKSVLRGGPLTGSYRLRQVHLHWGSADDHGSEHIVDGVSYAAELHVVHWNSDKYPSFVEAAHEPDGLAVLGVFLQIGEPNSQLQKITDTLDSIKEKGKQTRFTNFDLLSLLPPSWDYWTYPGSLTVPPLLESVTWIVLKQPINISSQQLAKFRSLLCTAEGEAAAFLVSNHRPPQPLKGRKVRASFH
Format: biochemical. Conditions: read-out: KI (nM)^a / hCA XIII (α-CA). The source says:
stopped-flow CO2 hydration assay, phenol red on hCA XIII

Another experiment addresses T7, hCA II (Homo sapiens, UniProt P00918).
T7 construct: gene CA2; recombinant, obtained in-house; cytosolic alpha-CA
Format: biochemical. Conditions: read-out: KI (nM)^a / hCA II (α-CA). An excerpt:
stopped-flow CO2 hydration assay, phenol red on hCA II

T1 sequence (P00915 2-261): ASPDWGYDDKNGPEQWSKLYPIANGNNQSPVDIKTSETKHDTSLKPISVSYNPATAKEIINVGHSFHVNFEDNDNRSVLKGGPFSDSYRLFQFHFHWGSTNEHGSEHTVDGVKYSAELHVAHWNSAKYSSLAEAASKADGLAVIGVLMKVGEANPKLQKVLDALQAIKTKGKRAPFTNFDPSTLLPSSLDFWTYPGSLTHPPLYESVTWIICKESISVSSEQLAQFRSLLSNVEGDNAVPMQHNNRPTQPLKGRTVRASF
T4 sequence (P43166 whole entry): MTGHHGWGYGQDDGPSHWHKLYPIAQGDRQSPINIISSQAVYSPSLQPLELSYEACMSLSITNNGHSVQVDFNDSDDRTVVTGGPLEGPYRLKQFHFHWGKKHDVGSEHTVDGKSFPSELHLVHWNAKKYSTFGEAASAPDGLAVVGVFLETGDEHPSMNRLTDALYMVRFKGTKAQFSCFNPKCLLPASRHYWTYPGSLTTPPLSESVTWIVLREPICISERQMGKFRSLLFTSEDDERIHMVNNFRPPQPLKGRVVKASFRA

Consider `CN(C#N)c1ccc(S(N)(=O)=O)cc1` [compound 8, 4-(N-Methylcyanamido)benzenesulfonamide], for which the Ki was determined as 557 nM at hCA I; 1580 nM on MscCA; 200 nM on StCA2; 13.8 nM on hCA VII; 52.7 nM on StCA1; 117 nM at hCA XIII. In addition, on hCA II, the Ki came to 29.2 nM.

Take `CCN(C#N)c1ccc(S(N)(=O)=O)cc1` [compound 9, 4-(N-Ethylcyanamido)benzenesulfonamide]: the Ki on hCA I was found to be 88.6 nM; at MscCA, 3150 nM; on StCA2 it was 367 nM; on hCA VII, 17.9 nM; at StCA1, 61.5 nM; at hCA XIII, 476 nM. Further, on hCA II, the Ki came out at 45.3 nM.

With `CCCCN(C#N)c1ccc(S(N)(=O)=O)cc1` [compound 10, 4-(N-Butylcyanamido)benzenesulfonamide], the Ki on hCA I was 16.4 nM; on MscCA, 4480 nM; at StCA2 it was 426 nM; on hCA VII, 1.3 nM; at StCA1, 62.7 nM; at hCA XIII, 70.7 nM. Besides, the Ki on hCA II turned out to be 32 nM.

Consider `CCCCCCN(C#N)c1ccc(S(N)(=O)=O)cc1` [compound 11, 4-(N-Hexylcyanamido)benzenesulfonamide], for which the Ki was 9.3 nM on hCA I; 6880 nM on MscCA; 718 nM on StCA2; 1.5 nM at hCA VII; 54.6 nM on StCA1; 83 nM at hCA XIII. Also, the Ki at hCA II amounted to 5.3 nM.

As for `CCCCCCCN(C#N)c1ccc(S(N)(=O)=O)cc1` [compound 12, 4-(N-Heptylcyanamido)benzenesulfonamide], the Ki came out at 38.2 nM on hCA I; 7190 nM at MscCA; 676 nM at StCA2; 1.7 nM at hCA VII; 58.8 nM at StCA1; 31.5 nM at hCA XIII. Further, the Ki at hCA II is 7.1 nM.

Consider `CCCCCCCCCCCCCCCCCCN(C#N)c1ccc(S(N)(=O)=O)cc1` [compound 13, 4-(N-Octadecylcyanamido)benzenesulfonamide], for which the Ki on hCA I came to 17.3 nM; on MscCA it was 9170 nM; on StCA2, 791 nM; on hCA VII it was 2.2 nM; at StCA1 it was 66.1 nM; at hCA XIII, 155 nM. In addition, on hCA II, the Ki was 9.5 nM.

For `N#CN(c1ccc(S(N)(=O)=O)cc1)C1CCCCC1` [compound 14, 4-(N-Cyclohexylcyanamido)benzenesulfonamide], the Ki was 50.6 nM on hCA I; 5360 nM at MscCA; 579 nM at StCA2; 1.9 nM on hCA VII; 69.5 nM on StCA1; 83.8 nM at hCA XIII. On hCA II, the Ki turned out to be 82.3 nM.

As to `C=CCN(C#N)c1ccc(S(N)(=O)=O)cc1` [compound 15, 4-(N-Allylcyanamido)benzenesulfonamide], the Ki on hCA I is 74.7 nM; at MscCA, 5100 nM; at StCA2 it was 645 nM; at hCA VII, 2.3 nM; at StCA1, 51.2 nM; at hCA XIII it was 97.7 nM. Moreover, the Ki on hCA II came to 54.1 nM.

On to `N#CN(Cc1ccccc1)c1ccc(S(N)(=O)=O)cc1` [compound 16, 4-(N-Benzylcyanamido)benzenesulfonamide], for which the Ki at hCA I came out at 67.3 nM; on MscCA, 9360 nM; on StCA2, 692 nM; at hCA VII it was 2 nM; at StCA1, 50.7 nM; at hCA XIII it was 67.8 nM. The Ki at hCA II came to 61.4 nM.

With `N#CN(Cc1ccc(Br)cc1)c1ccc(S(N)(=O)=O)cc1` [compound 17, 4-(N-(4-Bromobenzyl)cyanamido)benzenesulfonamide], the Ki on hCA I is 389 nM; on MscCA, 9590 nM; on StCA2, 750 nM; on hCA VII, 2.4 nM; at StCA1 it was 73.1 nM; on hCA XIII, 53.1 nM. For the same compound, the Ki on hCA II worked out at 93.3 nM.
